Experimental data taken from article PMC7840129, “Structural basis for heme-dependent NCoR binding to the transcriptional repressor REV-ERBβ” (Science Advances, 2021).

How the values were obtained:
[1] = heme fluorescence quenching; conditions: fig. S2C
[2] = test system: REV-ERB LBD interaction with NCoR ID motif peptides; experiment: fluorescence-based peptide binding assays; conditions: fig. S2A; authors attribute it to heme quenching artifact
[3] = test system: REV-ERBβ LBD; experiment: DSSO chemical cross-linking, SDS-PAGE; format: binding, human; conditions: LBD-only samples, 600 μM DSSO, 25°C, 45 min
Experimental: To further support this stoichiometry, we performed chemical cross-linking analysis of apo or heme-bound LBD ± RID using DSSO (disuccinimidyl sulfoxide), a cross-linker that cross-links lysine residues as well as serine, threonine, and tyrosine residues (fig. S9, A and B).
(§1) Apo or heme-bound REV-ERBβ LBD and NCoR RID protein samples were cross-linked in Hepes gel filtration buffer [25 mM Hepes (pH 7.5) at room temperature, 50 mM NaCl, and 0.5 mM TCEP]. Non–cross-linked negative controls were generated using the same procedure without the addition of DSSO (Thermo Fisher Scientific). Samples included 4 μM apo LBD with or without 2 μM RID and 4 μM heme-bound LBD with or without 2 μM RID; complexes were preincubated 1 hour on ice. Reactions were initiated by spiking DSSO in DMSO at a final concentration of 600 μM in 50-μl solutions. The final molar ratio of cross-linker:protein was 100:1. The reactions were incubated at 25°C for 45 min before being quenched by the addition of tris (pH 8.0) to a final concentration of 50 mM. Each cross-link reaction was done in triplicate, and the reaction replicates were pooled after quenching. Samples (10 μl) were loaded for SDS-PAGE analysis with Coomassie staining to confirm the presence of cross-linked protein. […]

[4] = test system: REV-ERB LBD interaction with NCoR ID motif peptides; conditions: REV-ERBs; cited from earlier work
From the text: The iron-centered porphyrin heme has been identified as the endogenous REV-ERB ligand ([7], [8]). […] Structural data would help establish that heme directly produces a REV-ERB LBD conformation that enhances NCoR binding. However, published biochemical and structural studies contradict cell-based evidence ([7]–[11]).

[5] = test system: REV-ERBβ LBD / NCoR RID; experiment: Chemical cross-linking mass spectrometry (XL-MS); format: binding; conditions: LBD:RID complexes ± heme; DSSO; significant at Padj < 0.05
Experimental: as §1, with “protein. The remaining cross-linked and non–cross-linked samples were then acetone-precipitated at −20°C overnight, and the protein was pelleted by centrifugation at 16,000 relative centrifugal force (rcf) for 5 min at 4°C. After decanting, the pellets were dried for 15 min at room temperature before being resuspended in 12.5 μl of resuspension buffer [50 mM ammonium bicarbonate and 8 M urea (pH 8.0)].” for “protein.”

For `C=CC1=C(C)c2cc3[n-]c(cc4[n-]c(cc5nc(cc1n2)C(C)=C5C=C)c(C)c4CCC(=O)O)c(CCC(=O)O)c3C.[Fe+2]` [heme], the “heme quenching of fluorophores” value [1] was “quenches fluorophores across a broad range of emissions”, the “effect of heme on ID peptide interaction in fluorescence-based assays” value [2] was “dose-dependently reduces REV-ERB LBD interaction with peptides derived from NCoR ID motifs” and the “LBD dimer band by cross-linking SDS-PAGE, effect of heme” value [3] was “weak dimer band in LBD-only samples that was unchanged by heme”. For the same molecule, the “displacement of NCoR ID peptides in fluorescence-based biochemical assays” value [4] was “dose-dependently displace NCoR interaction domain (ID) peptides from the REV-ERBs” and the “effect of heme on cross-links” value [5] was “reduced LBD-LBD and LBD-RID cross-links, particularly for residues in the AF-2 surface”.
